Experimental data from ChEMBL document CHEMBL5247595, “Synthesis, antitumor, and apoptosis-inducing activities of novel 5-arylidenethiazolidine-2,4-dione derivatives: Histone deacetylases inhibitory activity and molecular docking study” (Eur J Med Chem, 2022).

How the values were obtained:
[1] = test system: PC-3; experiment: Cytotoxicity against human PC-3 cells assessed as inhibition of cell growth measured after 48 hrs by MTT assay; type: functional, cell-based; conditions: PC-3, 48 h
[2] = test system: HepG2; experiment: cells; type: functional, cell-based; conditions: Homo sapiens, HepG2, 48 h
Description: Cytotoxicity against human HepG2 cells assessed as inhibition of cell growth measured after 48 hrs by MTT assay

[3] = test system: HCT-116; experiment: cells; type: functional, cell-based; conditions: Homo sapiens, HCT-116, 48 h
Description: Cytotoxicity against human HCT-116 cells assessed as inhibition of cell growth measured after 48 hrs by MTT assay

[4] = test system: MCF7; experiment: cells; type: functional, cell-based; conditions: Homo sapiens, MCF7, 48 h
Description: Cytotoxicity against human MCF7 cells assessed as inhibition of cell growth measured after 48 hrs by MTT assay

[5] = test system: HeLa; experiment: cells; type: functional, cell-based; conditions: Homo sapiens, 48 h
Description: Cytotoxicity against human HeLa cells assessed as inhibition of cell growth measured after 48 hrs by MTT assay

[6] = in vitro; conditions: human, WI-38 cells
Description: Cytotoxicity against human WI-38 cells assessed as inhibition of cell growth measured after 48 hrs by MTT assay

[7] = target: Histone deacetylase 1 (Homo sapiens, UniProt Q13547); experiment: Inhibition of HDAC1 (unknown origin) by ELISA assay
Histone deacetylase 1, sequence (Q13547 whole entry): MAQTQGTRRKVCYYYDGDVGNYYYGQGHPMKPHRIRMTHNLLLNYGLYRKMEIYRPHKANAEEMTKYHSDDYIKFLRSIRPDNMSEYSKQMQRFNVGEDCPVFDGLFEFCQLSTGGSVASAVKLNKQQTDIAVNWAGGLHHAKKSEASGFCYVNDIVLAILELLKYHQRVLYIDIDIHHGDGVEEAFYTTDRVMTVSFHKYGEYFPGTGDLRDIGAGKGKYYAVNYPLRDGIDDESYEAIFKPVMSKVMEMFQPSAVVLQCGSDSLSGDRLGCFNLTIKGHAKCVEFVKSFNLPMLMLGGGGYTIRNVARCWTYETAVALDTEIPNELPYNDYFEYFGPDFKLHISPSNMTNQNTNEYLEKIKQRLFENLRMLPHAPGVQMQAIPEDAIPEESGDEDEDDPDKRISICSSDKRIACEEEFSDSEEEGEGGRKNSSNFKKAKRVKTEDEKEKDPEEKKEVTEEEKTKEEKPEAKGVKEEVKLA

[8] = target: Histone deacetylase 2 (Homo sapiens, UniProt Q92769); experiment: Inhibition of HDAC2 (unknown origin) by ELISA assay
Histone deacetylase 2, sequence (Q92769 whole entry): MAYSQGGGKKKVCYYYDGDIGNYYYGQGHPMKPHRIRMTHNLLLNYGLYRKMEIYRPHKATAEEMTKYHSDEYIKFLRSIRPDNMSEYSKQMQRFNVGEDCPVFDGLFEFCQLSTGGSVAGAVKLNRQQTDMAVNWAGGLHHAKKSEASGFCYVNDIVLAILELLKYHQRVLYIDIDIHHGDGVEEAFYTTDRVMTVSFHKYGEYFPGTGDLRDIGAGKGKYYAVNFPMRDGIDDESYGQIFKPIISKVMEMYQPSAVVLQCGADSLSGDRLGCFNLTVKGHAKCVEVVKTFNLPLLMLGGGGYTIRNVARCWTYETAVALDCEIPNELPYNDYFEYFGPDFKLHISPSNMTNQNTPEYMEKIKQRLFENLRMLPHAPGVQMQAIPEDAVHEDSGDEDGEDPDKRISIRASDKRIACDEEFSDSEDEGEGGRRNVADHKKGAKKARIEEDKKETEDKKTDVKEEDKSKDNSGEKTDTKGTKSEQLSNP

[9] = target: T1, Histone deacetylase 8 (Homo sapiens, UniProt Q9BY41); experiment: Inhibition of HDAC8 (unknown origin) by ELISA assay
T1 sequence (Q9BY41 whole entry): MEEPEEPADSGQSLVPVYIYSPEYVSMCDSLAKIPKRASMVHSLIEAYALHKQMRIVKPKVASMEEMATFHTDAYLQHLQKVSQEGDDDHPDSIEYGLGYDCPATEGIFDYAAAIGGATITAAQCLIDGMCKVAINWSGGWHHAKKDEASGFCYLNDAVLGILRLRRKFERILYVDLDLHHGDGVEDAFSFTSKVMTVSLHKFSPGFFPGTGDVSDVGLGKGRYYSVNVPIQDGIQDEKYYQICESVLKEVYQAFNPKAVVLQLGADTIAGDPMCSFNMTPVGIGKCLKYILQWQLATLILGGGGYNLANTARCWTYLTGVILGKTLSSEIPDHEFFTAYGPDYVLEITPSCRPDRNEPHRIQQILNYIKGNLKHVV

[10] = target: T2, Protein deacetylase HDAC6 (Homo sapiens, UniProt Q9UBN7); experiment: Inhibition of HDAC6 (unknown origin) by ELISA assay
T2 sequence (Q9UBN7 whole entry): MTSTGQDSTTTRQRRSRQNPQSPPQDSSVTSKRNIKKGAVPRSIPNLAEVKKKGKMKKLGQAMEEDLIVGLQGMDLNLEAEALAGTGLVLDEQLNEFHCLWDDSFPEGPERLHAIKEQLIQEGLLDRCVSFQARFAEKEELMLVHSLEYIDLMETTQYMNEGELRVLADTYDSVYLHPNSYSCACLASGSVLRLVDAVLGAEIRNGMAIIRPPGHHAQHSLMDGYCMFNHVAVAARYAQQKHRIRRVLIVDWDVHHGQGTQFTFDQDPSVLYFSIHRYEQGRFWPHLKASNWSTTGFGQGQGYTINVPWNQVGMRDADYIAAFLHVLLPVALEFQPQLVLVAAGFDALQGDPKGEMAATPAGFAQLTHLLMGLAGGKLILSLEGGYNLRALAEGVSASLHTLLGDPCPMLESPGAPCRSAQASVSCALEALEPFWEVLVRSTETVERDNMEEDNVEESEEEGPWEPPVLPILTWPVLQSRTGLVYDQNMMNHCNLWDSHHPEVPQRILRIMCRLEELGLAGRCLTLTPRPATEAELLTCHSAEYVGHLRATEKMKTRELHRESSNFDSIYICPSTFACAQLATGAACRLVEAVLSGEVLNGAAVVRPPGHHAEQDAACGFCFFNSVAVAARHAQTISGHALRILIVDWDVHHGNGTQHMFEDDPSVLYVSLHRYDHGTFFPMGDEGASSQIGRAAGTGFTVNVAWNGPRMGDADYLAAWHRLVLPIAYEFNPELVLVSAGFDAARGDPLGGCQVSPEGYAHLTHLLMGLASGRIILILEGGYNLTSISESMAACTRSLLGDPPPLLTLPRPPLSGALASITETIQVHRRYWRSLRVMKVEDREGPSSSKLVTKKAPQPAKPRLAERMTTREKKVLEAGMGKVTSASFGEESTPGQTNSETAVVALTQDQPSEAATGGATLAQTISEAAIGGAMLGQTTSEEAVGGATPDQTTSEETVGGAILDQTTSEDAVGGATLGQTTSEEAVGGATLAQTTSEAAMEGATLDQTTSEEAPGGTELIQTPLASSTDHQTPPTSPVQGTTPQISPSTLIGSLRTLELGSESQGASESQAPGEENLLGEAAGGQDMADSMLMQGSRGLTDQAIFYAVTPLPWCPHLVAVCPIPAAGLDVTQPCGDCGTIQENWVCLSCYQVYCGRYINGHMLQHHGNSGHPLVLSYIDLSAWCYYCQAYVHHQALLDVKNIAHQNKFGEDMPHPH

[11] = test system: MCF7; experiment: Induction of apoptosis in human MCF7 cells assessed as fold increase in BAX expression by ELISA assay; type: functional
[12] = test system: HCT-116; experiment: Induction of apoptosis in human HCT-116 cells assessed as fold increase in BAX expression by ELISA assay; type: functional
[13] = test system: HepG2; experiment: Induction of apoptosis in human HepG2 cells assessed as fold increase in BAX expression by ELISA assay; type: functional
[14] = test system: MCF7; experiment: Induction of apoptosis in human MCF7 cells assessed as fold increase in caspases-3 expression by ELISA assay; type: functional
[15] = test system: HCT-116; experiment: Induction of apoptosis in human HCT-116 cells assessed as fold increase in caspases-3 expression by ELISA assay; type: functional
[16] = test system: HepG2; experiment: Induction of apoptosis in human HepG2 cells assessed as fold increase in caspases-3 expression by ELISA assay; type: functional
[17] = test system: MCF7; experiment: Induction of apoptosis in human MCF7 cells assessed as fold increase in caspases-7 expression by ELISA assay; type: functional
[18] = test system: HCT-116; experiment: Induction of apoptosis in human HCT-116 cells assessed as fold increase in caspases-7 expression by ELISA assay; type: functional
[19] = test system: HepG2; experiment: Induction of apoptosis in human HepG2 cells assessed as fold increase in caspases-7 expression by ELISA assay; type: functional
[20] = test system: HCT-116; experiment: Induction of cell cycle arrest in human HCT-116 cells assessed as accumulation at sub-G1 phase by PI-staining based flow cytometry (reference value: 12%); type: functional
[21] = test system: HepG2; experiment: Induction of cell cycle arrest in human HepG2 cells assessed as accumulation at G0/G1 phase by PI-staining based flow cytometry (reference value: 35.2%); type: functional
[22] = test system: MCF7; experiment: Induction of cell cycle arrest in human MCF7 cells assessed as accumulation at G0/G1 phase by PI-staining based flow cytometry (reference value: 40.8%); type: functional
[23] = test system: HCT-116; experiment: Induction of cell cycle arrest in human HCT-116 cells assessed as accumulation at G0/G1 phase by PI-staining based flow cytometry (reference value: 47%); type: functional
[24] = test system: HepG2; experiment: Induction of cell cycle arrest in human HepG2 cells assessed as accumulation at S phase by PI-staining based flow cytometry (reference value: 5.8%); type: functional
[25] = test system: MCF7; experiment: Induction of cell cycle arrest in human MCF7 cells assessed as accumulation at S phase by PI-staining based flow cytometry (reference value: 6.3%); type: functional
[26] = test system: HCT-116; experiment: Induction of cell cycle arrest in human HCT-116 cells assessed as accumulation at S phase by PI-staining based flow cytometry (reference value: 7.1%); type: functional
[27] = test system: HepG2; experiment: Induction of cell cycle arrest in human HepG2 cells assessed as accumulation at G2/M phase by PI-staining based flow cytometry (reference value: 41.5%); type: functional
[28] = test system: MCF7; experiment: Induction of cell cycle arrest in human MCF7 cells assessed as accumulation at G2/M phase by PI-staining based flow cytometry (reference value: 35.3%); type: functional
[29] = test system: HCT-116; experiment: Induction of cell cycle arrest in human HCT-116 cells assessed as accumulation at G2/M phase by PI-staining based flow cytometry (reference value: 29.2%); type: functional
[30] = test system: HepG2; experiment: Induction of cell cycle arrest in human HepG2 cells assessed as accumulation at sub-G1 phase by PI-staining based flow cytometry (reference value: 12.6%); type: functional
[31] = test system: MCF7; experiment: Induction of cell cycle arrest in human MCF7 cells assessed as accumulation at sub-G1 phase by PI-staining based flow cytometry (reference value: 13.2%); type: functional

Structure (SMILES): O=C(CCCCCCC(=O)Nc1ccccc1)NO [VORINOSTAT]
- IC50 [1]: 3.6 µM

Structure (SMILES): COc1ccc(/C=C2\SC(=O)N(CC(=O)Nc3c(C)n(C)n(-c4ccccc4)c3=O)C2=O)cc1
- IC50 [2]: 68.5 µM
- IC50 [3]: 70.3 µM
- IC50 [4]: 75.6 µM
- IC50 [1]: 93.7 µM
- IC50 [5]: 64.8 µM
- IC50 at 48 h [6]: 52.9 µM

Structure (SMILES): Cc1ccc(/C=C2\SC(=O)N(CC(=O)Nc3c(C)n(C)n(-c4ccccc4)c3=O)C2=O)cc1
- IC50 [2]: 57.6 µM
- IC50 [3]: 47.6 µM
- IC50 [4]: 65.5 µM
- IC50 [1]: 45.3 µM
- IC50 [5]: 53.1 µM
- IC50 at 48 h [6]: 83.7 µM

Structure (SMILES): Cc1c(NC(=O)CN2C(=O)S/C(=C\c3ccc([N+](=O)[O-])cc3)C2=O)c(=O)n(-c2ccccc2)n1C
- IC50 [2]: 84.3 µM
- IC50 [3]: 91.3 µM
- IC50 [4]: 82.4 µM
- IC50 [1]: > 100 µM
- IC50 [5]: 77.2 µM
- IC50 at 48 h [6]: 43.8 µM

Structure (SMILES): Cc1ccc(/C=C2\SC(=O)N(CCNC(=O)Nc3c(C)n(C)n(-c4ccccc4)c3=O)C2=O)cc1
- IC50 [2]: 25.7 µM
- IC50 [3]: 32.7 µM
- IC50 [4]: 37.4 µM
- IC50 [1]: 58.6 µM
- IC50 [5]: 22.4 µM
- IC50 at 48 h [6]: 48.1 µM

Structure (SMILES): Cc1c(NC(=O)CN2C(=O)S/C(=C\c3ccc(Br)cc3)C2=O)c(=O)n(-c2ccccc2)n1C
- IC50 [2]: 19.2 µM
- IC50 [3]: 7.84 µM
- IC50 [4]: 24.1 µM
- IC50 [1]: 17.1 µM
- IC50 [5]: 9.41 µM
- IC50 [7]: 0.458 µM
- IC50 [8]: 3.85 µM
- IC50 [9]: 1.09 µM
- IC50 [10]: 1.63 µM
- IC50 at 48 h [6]: 66.7 µM

Structure (SMILES): COc1cc(/C=C2\SC(=O)N(CCNC(=O)Nc3c(C)n(C)n(-c4ccccc4)c3=O)C2=O)cc(OC)c1OC
- IC50 [2]: 10.8 µM
- IC50 [3]: 12.5 µM
- IC50 [4]: 7.58 µM
- IC50 [1]: 35.4 µM
- IC50 [5]: 15.8 µM
- IC50 [7]: 0.349 µM
- IC50 [8]: 1.74 µM
- IC50 [9]: 0.344 µM
- IC50 [10]: 0.475 µM
- IC50 at 48 h [6]: 51.5 µM

Structure (SMILES): Cc1c(NC(=O)NCCN2C(=O)S/C(=C\c3ccc([N+](=O)[O-])cc3)C2=O)c(=O)n(-c2ccccc2)n1C
- IC50 [2]: 14 µM
- IC50 [3]: 44.8 µM
- IC50 [4]: 18.6 µM
- IC50 [1]: 69.3 µM
- IC50 [5]: 37.7 µM
- IC50 [7]: 0.16 µM
- IC50 [8]: 0.526 µM
- IC50 [9]: 0.245 µM
- IC50 [10]: 0.144 µM
- IC50 at 48 h [6]: 76.4 µM

Structure (SMILES): COc1ccc(/C=C2\SC(=O)N(CCNC(=O)Nc3c(C)n(C)n(-c4ccccc4)c3=O)C2=O)cc1
- IC50 [2]: 8.37 µM
- IC50 [3]: 3.16 µM
- IC50 [4]: 5.14 µM
- IC50 [1]: 13.9 µM
- IC50 [5]: 6.18 µM
- fold change (FC) [11]: 7.013
- fold change (FC) [12]: 4.9
- fold change (FC) [13]: 13.13
- fold change (FC) [14]: 5.2
- fold change (FC) [15]: 3.9
- fold change (FC) [16]: 5.2
- fold change (FC) [17]: 6.6
- fold change (FC) [18]: 3.7
- fold change (FC) [19]: 9.1
- Activity [20]: 39.5%
- Activity [21]: 50.6%
- Activity [22]: 60.6%
- Activity [23]: 55.2%
- Activity [24]: 1.6%
- Activity [25]: 4.8%
- Activity [26]: 1.6%
- Activity [27]: 0%
- Activity [28]: 0.2%
- Activity [29]: 0%
- Activity [30]: 43.4%
- Activity [31]: 31.7%
- IC50 [7]: 0.281 µM
- IC50 [8]: 0.834 µM
- IC50 [9]: 0.517 µM
- IC50 [10]: 0.258 µM
- IC50 at 48 h [6]: 34.5 µM

Structure (SMILES): Cc1c(NC(=O)NCCN2C(=O)S/C(=C\c3ccc(Br)cc3)C2=O)c(=O)n(-c2ccccc2)n1C
- IC50 [2]: 52.3 µM
- IC50 [3]: 78.1 µM
- IC50 [4]: 58.1 µM
- IC50 [1]: > 100 µM
- IC50 [5]: 72.6 µM
- IC50 at 48 h [6]: > 100 µM

Structure (SMILES): Cc1c(NC(=O)NCCN2C(=O)S/C(=C\c3ccc(Cl)cc3)C2=O)c(=O)n(-c2ccccc2)n1C
- IC50 [2]: 38.8 µM
- IC50 [3]: 36.3 µM
- IC50 [4]: 46.9 µM
- IC50 [1]: 40.1 µM
- IC50 [5]: 29.4 µM
- IC50 at 48 h [6]: 27.5 µM

Structure (SMILES): Cc1c(NC(=O)CN2C(=O)S/C(=C\c3ccc(Cl)cc3)C2=O)c(=O)n(-c2ccccc2)n1C
- IC50 [2]: 31.9 µM
- IC50 [3]: 23 µM
- IC50 [4]: 42.6 µM
- IC50 [1]: 28.9 µM
- IC50 [5]: 19.9 µM
- IC50 at 48 h [6]: 54.4 µM
